Assay results as given in patent EP2457907A1, “Flavagline derivatives as neuroprotective agents” (Université de Strasbourg, priority 2010, dated 2012).

Experiments:
[1] = system: primary cultures of mouse cerebellar neurons; experiment: Neuroprotection against cisplatin-induced apoptosis (MTT assay); format: cell-based; conditions: flavagline derivative 1 nM, cisplatin 2.5 µM, 48 hours; numbers only in Figure 3
Protocol: The in vitro neuroprotectant activity against neurotoxicity of an antineoplastic agent was assayed on apoptosis induced by cisplatin (2.5 µM) in primary cultures of mouse cerebellar neurons. Neuronal survival was measured by MTT assay.
Cerebellar granular neurons were dissected from 7-day old mice as described previously (Benosman et al., 2007). Briefly, after enzymatic and mechanical dissociation, cells were plated at a density of 500 cells/mm^2 on 0.1 mg/ml polyornithine-pre-coated culture dishes and were grown at 37 °C in a humidified atmosphere (5% CO2 / 95% air). Plating culture medium contained DMEM (Dulbecco's modified Eagle's medium; Life Technology) supplemented with 10% heat-inactivated horse serum (Life Technology), 100 nM insulin (Life Technology), […] gentamycin (Life Technology) and 25 mM KCl. […]
Mature neurons were cultured in 96-well culture dishes (Costar) and incubated for 48 hours in presence of cisplatine (2.5 µM) and flavagline derivative (1 nM) (which were both added into the medium at the same time). […] Plates were stirred at room temperature to ensure that all crystals were dissolved and read on a Bio-Rad 680 micro-ELISA plate-reader, using a test wavelength of 490 nm and a non-specific wavelength of 650 nm for background absorbency. […]

[2] = system: primary rat mesencephalic neurons; experiment: Neuroprotection against MPP+-induced apoptosis (in vitro model of Parkinson's disease), TH immunostaining; format: cell-based; conditions: 3µM MPP+; numbers only in Figure 4
Protocol: The neuroprotectant activity was tested in a cellular model of Parkinson's disease on primary mesencephalic cultures of rat embryos treated by MPP^+ (3µM) (Hoglinger et al. 2003).
Postmitotic dopaminergic neurons from the ventral mesencephalon of embryonic day 15.5 Wistar rat embryos (CERJ, Le Genest St. Isle, France) were dissociated mechanically, plated onto polyethylenimine-precoated 24-well culture plates, grown in N5 medium supplemented with 5 mM glucose, 5% horse serum and 2.5% fetal calf serum, as described previously (Michel et al., 1989). After 3 days, fetal calf serum was reduced to 0.5% to limit astrocyte proliferation. All experiments were initiated at day 5 in N5 medium containing 1 % horse serum and 0.1 % fetal calf serum. For each experiment MPP^+ (Sigma) was diluted to 10 mM in H2O. Cells were fixed with 4% formaldehyde for immunocytochemistry. Dopaminergic neurons were visualized by immunocytochemical detection of tyrosine hydroxylase (TH).

Q: For `COc1cc(OC)c2c(c1)OC1(c3ccc(Br)cc3)C(c3ccccc3)CC(NC=O)C21O` (centres unmarked) [FL23, N-(3a-(4-Bromophenyl)-8b-hydroxy-6,8-dimethoxy-3-phenyl-2,3,3a,8b-tetrahydro-1H-cyclopenta[b]benzofuran-1-yl)formamide], which “protection of neurons against apoptosis induced by cisplatin (neuronal survival)” value [1] is on record?
A: Its value is “able to prevent or limit neuronal cell apoptosis”.

Q: What about the “protection against MPP+-induced neurodegeneration (TH-positive dopaminergic neurons)” value (from here on “protection … (TH-positive dopaminergic neurons)”) [2] of the same compound?
A: The value was “able to prevent or limit neuronal cell degeneration”.

Q: `COc1cc(OC)c2c(c1)OC1(c3ccc(Br)cc3)C(c3cccc(F)c3)CC(NC(=O)N(C)C)C21O` (centres unmarked) [FL37] was tested. Which “protection of neurons against apoptosis induced by cisplatin (neuronal survival)” value [1] did it give?
A: The value was “able to prevent or limit neuronal cell apoptosis”.

Q: What about the “protection … (TH-positive dopaminergic neurons)” value [2] of the same compound?
A: The value was “able to prevent or limit neuronal cell degeneration”.

Q: Which “protection … (TH-positive dopaminergic neurons)” value [2] does the source give for `COc1cc(OC)c2c(c1)OC1(c3ccc(Br)cc3)C(c3cccc(F)c3)CC(NC=O)C21O` (centres unmarked) [FL32, N-(3a-(4-Bromophenyl)-3-(3-fluorophenyl)-8b-hydroxy-6,8-dimethoxy-2,3,3a,8b-tetrahydro-1H-cyclopenta[b]benzofuran-1-yl)formamide] here?
A: Its value is “able to prevent or limit neuronal cell degeneration”.
